Assay results reported in patent publication US5045549A, “Substituted 4-pyridone 3-carboxylic acid derivatives, method for their production and their pharmaceutical compositions” (priority 1986, dated 1991).
Converted amounts (≈) assume the structure as drawn. Where two headings read alike, the source gives them in different places.

Assays:
Assay in all cases: MIC agar dilution assay (Table III)
Type in all cases: cell-based
CITRO DIV = conditions: 18 CITRO DIV K 82 24; 18 Hrs, 35 Celsius; read-out: MINIMAL INHIBITORY CONC.
Procedure: (§1) The results are summarized in Table III. |TEST: 406 METHOD: […] |MEDIUM: […] |INCUBATION: 18 Hrs. 35 Celsius | Aerobic: T

ESCH COLI = conditions: 18 h, read-out: MINIMAL INHIBITORY CONC.
Procedure: as §1

PROV STUA = conditions: 17 PROV STUA CMC 83 3; 18 Hrs, 35 Celsius; read-out: MINIMAL INHIBITORY CONC.
Procedure: as §1

PSEU AERUG = conditions: 18 h, read-out: MINIMAL INHIBITORY CONC.
Procedure: as §1

STREP FAEC = conditions: 18 h, read-out: MINIMAL INHIBITORY CONC.
Procedure: as §1

ENTERO CLO = conditions: 18 h, read-out: MINIMAL INHIBITORY CONC.
Procedure: (§2) TEST: 406 METHOD: AGAR DIL
(§3) MEDIUM: MUEL-HIN INOCULUM: 1.OE+04 - 5.OE+04
(§4) INCUBATION: 18 Hrs. 35 Celsius

KLEB PNEUM = conditions: 18 h, read-out: MINIMAL INHIBITORY CONC.
Procedure: as §2, §3, §4

MORG MORG = conditions: 18 h, read-out: MINIMAL INHIBITORY CONC.
Procedure: as §2, §3, §4

PROT RETT = conditions: 16 PROT RETT IO 83 21; 18 Hrs, 35 Celsius; read-out: MINIMAL INHIBITORY CONC.
Procedure: as §2, §3, §4

SERRAT MARC = conditions: 18 h, read-out: MINIMAL INHIBITORY CONC.
Procedure: as §2, §3, §4

STAPH AUR = conditions: 18 h, read-out: MINIMAL INHIBITORY CONC.
Procedure: as §2, §3, §4

[1] = 1 ESCH COLI MOR 84 20, 35 Celsius
[2] = 2 ESCH COLI VGH 84 19, 35 Celsius
[3] = 3 ESCH COLI CMC 84 50, 35 Celsius
[4] = 28 ESCH COLI ATCC 25922, 35 Celsius
[5] = 19 PSEU AERUG K 84 16, 35 Celsius
[6] = 20 PSEU AERUG VGH 84 3, 35 Celsius
[7] = 21 PSEU AERUG CMC 83 20, 35 Celsius
[8] = 25 STREP FAEC UCI 85 30, 35 Celsius
[9] = 26 STREP FAEC VGH 84 69, 35 Celsius
[10] = 27 STREP FAEC CMC 83 120, 35 Celsius
[11] = 7 ENTERO CLO VGH 84 39, 35 Celsius
[12] = 8 ENTERO CLO K 84 10, 35 Celsius
[13] = 9 ENTERO CLO MOR 84 30, 35 Celsius
[14] = 4 KLEB PNEUM CMC 84 31, 35 Celsius
[15] = 5 KLEB PNEUM MOR 84 24, 35 Celsius
[16] = 6 KLEB PNEUM IO 83 5, 35 Celsius
[17] = 13 MORG MORG VGH 84 12, 35 Celsius
[18] = 14 MORG MORG CMC 84 38, 35 Celsius
[19] = 15 MORG MORG MOR 84 45, 35 Celsius
[20] = 10 SERRAT MARC MOR 84 41, 35 Celsius
[21] = 11 SERRAT MARC CMC 83 74, 35 Celsius
[22] = 12 SERRAT MARC IO 83 63, 35 Celsius
[23] = 22 STAPH AUR VGH 84 47, 35 Celsius
[24] = 23 STAPH AUR K 82 26, 35 Celsius
[25] = 24 STAPH AUR CMC 83 131, 35 Celsius
[26] = 29 STAPH AUR ATCC 29213, 35 Celsius

Compound: CN1CC2CC1CN2c1cc2c(cc1F)c(=O)c(C(=O)O)cn2-c1ccc(F)cc1F (stereo not shown) [Example 9, 6-Fluoro-1-(2,4-difluorophenyl)-1,4-dihydro7-(5-methyl-2,5-diazabicyclo(2.2.1)hept-2-yl)-4-oxoquinoline-3-carboxylic acid]
- MIC (CITRO DIV): 0.03 µg/mL (≈ 0.0699 µM)
- MIC (ESCH COLI; [1]): 0.015 µg/mL (≈ 0.0349 µM)
- MIC (ESCH COLI; [2]): 0.015 µg/mL (≈ 0.0349 µM)
- MIC (ESCH COLI; [3]): 0.06 µg/mL (≈ 0.14 µM)
- MIC (ESCH COLI; [4]): 0.03 µg/mL (≈ 0.0699 µM)
- MIC (PROV STUA): 4 µg/mL (≈ 9.32 µM)
- MIC (PSEU AERUG; [5]): 1 µg/mL (≈ 2.33 µM)
- MIC (PSEU AERUG; [6]): 4 µg/mL (≈ 9.32 µM)
- MIC (PSEU AERUG; [7]): 0.5 µg/mL (≈ 1.16 µM)
- MIC (STREP FAEC; [8]): 0.5 µg/mL (≈ 1.16 µM)
- MIC (STREP FAEC; [9]): 0.5 µg/mL (≈ 1.16 µM)
- MIC (STREP FAEC; [10]): 0.5 µg/mL (≈ 1.16 µM)
- MIC (ENTERO CLO; [11]): 0.06 µg/mL (≈ 0.14 µM)
- MIC (ENTERO CLO; [12]): 0.03 µg/mL (≈ 0.0699 µM)
- MIC (ENTERO CLO; [13]): 0.06 µg/mL (≈ 0.14 µM)
- MIC (KLEB PNEUM; [14]): 0.06 µg/mL (≈ 0.14 µM)
- MIC (KLEB PNEUM; [15]): 0.06 µg/mL (≈ 0.14 µM)
- MIC (KLEB PNEUM; [16]): 0.12 µg/mL (≈ 0.279 µM)
- MIC (MORG MORG; [17]): 0.25 µg/mL (≈ 0.582 µM)
- MIC (MORG MORG; [18]): 0.25 µg/mL (≈ 0.582 µM)
- MIC (MORG MORG; [19]): 0.12 µg/mL (≈ 0.279 µM)
- MIC (PROT RETT): 0.06 µg/mL (≈ 0.14 µM)
- MIC (SERRAT MARC; [20]): 0.12 µg/mL (≈ 0.279 µM)
- MIC (SERRAT MARC; [21]): 4 µg/mL (≈ 9.32 µM)
- MIC (SERRAT MARC; [22]): 0.5 µg/mL (≈ 1.16 µM)
- MIC (STAPH AUR; [23]): 0.03 µg/mL (≈ 0.0699 µM)
- MIC (STAPH AUR; [24]): 0.015 µg/mL (≈ 0.0349 µM)
- MIC (STAPH AUR; [25]): 0.5 µg/mL (≈ 1.16 µM)
- MIC (STAPH AUR; [26]): 0.03 µg/mL (≈ 0.0699 µM)

Compound: O=C(O)c1cn(-c2ccc(F)cc2F)c2cc(N3CC4CC3CN4)c(F)cc2c1=O (stereo not shown) [Example 11, 7-(2,5-diazabicyclo(2.2.1)hept-2-yl)-6-fluoro-1-(2,4-difluorophenyl)-1,4-dihydro-4-oxoquinoline3-carboxylic acid]
- MIC (CITRO DIV): 0.008 µg/mL (≈ 0.0193 µM)
- MIC (ESCH COLI; [1]): 0.008 µg/mL (≈ 0.0193 µM)
- MIC (ESCH COLI; [2]): 0.008 µg/mL (≈ 0.0193 µM)
- MIC (ESCH COLI; [3]): 0.03 µg/mL (≈ 0.0722 µM)
- MIC (ESCH COLI; [4]): 0.008 µg/mL (≈ 0.0193 µM)
- MIC (PROV STUA): 2 µg/mL (≈ 4.81 µM)
- MIC (PSEU AERUG; [5]): 0.5 µg/mL (≈ 1.2 µM)
- MIC (PSEU AERUG; [6]): 1 µg/mL (≈ 2.41 µM)
- MIC (PSEU AERUG; [7]): 0.25 µg/mL (≈ 0.602 µM)
- MIC (STREP FAEC; [8]): 0.5 µg/mL (≈ 1.2 µM)
- MIC (STREP FAEC; [9]): 0.5 µg/mL (≈ 1.2 µM)
- MIC (STREP FAEC; [10]): 0.5 µg/mL (≈ 1.2 µM)
- MIC (ENTERO CLO; [11]): 0.03 µg/mL (≈ 0.0722 µM)
- MIC (ENTERO CLO; [12]): 0.015 µg/mL (≈ 0.0361 µM)
- MIC (ENTERO CLO; [13]): 0.03 µg/mL (≈ 0.0722 µM)
- MIC (KLEB PNEUM; [14]): 0.03 µg/mL (≈ 0.0722 µM)
- MIC (KLEB PNEUM; [15]): 0.06 µg/mL (≈ 0.144 µM)
- MIC (KLEB PNEUM; [16]): 0.06 µg/mL (≈ 0.144 µM)
- MIC (MORG MORG; [17]): 0.06 µg/mL (≈ 0.144 µM)
- MIC (MORG MORG; [18]): 0.12 µg/mL (≈ 0.289 µM)
- MIC (MORG MORG; [19]): 0.03 µg/mL (≈ 0.0722 µM)
- MIC (PROT RETT): 0.03 µg/mL (≈ 0.0722 µM)
- MIC (SERRAT MARC; [20]): 0.06 µg/mL (≈ 0.144 µM)
- MIC (SERRAT MARC; [21]): 4 µg/mL (≈ 9.63 µM)
- MIC (SERRAT MARC; [22]): 0.25 µg/mL (≈ 0.602 µM)
- MIC (STAPH AUR; [23]): 0.25 µg/mL (≈ 0.602 µM)
- MIC (STAPH AUR; [24]): 0.12 µg/mL (≈ 0.289 µM)
- MIC (STAPH AUR; [25]): 0.25 µg/mL (≈ 0.602 µM)
- MIC (STAPH AUR; [26]): 0.25 µg/mL (≈ 0.602 µM)
